Results taken from US20120172298A1, “GLP-1 AND FGF21 COMBINATIONS FOR TREATMENT OF DIABETES TYPE 2” (Novo Nordisk A/S, priority 2009, published 2012).
Where “and” joins values, the source holds several entries; their conditions need not be identical. Equal entries are not always repeated.

Tests used:
[1] = system: pancreatic islets from diabetic db/db mice; experiment: Restoration of glucose stimulated insulin release ex vivo (islet perifusion); type: cell-based; parameters: AUC for time 35-75 minutes (glucose response), single repetitions / AUC for time 75-140 minutes (forskolin response), single repetitions: unit not given here; settings: FGF21 = 50 nM Compound F1, GLP-1 = 100 nM Compound G3
Method: This ex vivo example investigates the ability of pancreatic islets from diabetic db/db mice to restore, in response to treatment with FGF21 and GLP-1 compounds, the ability to release insulin in response to glucose stimulation.
Islets from 25 db/db mice (Charles River), 15 weeks of age, were isolated according to the following procedure:
Animals were killed by cervical dislocation and fixated with pins on a Styrofoam plate. Pancreata were removed and transferred to a Packard vial containing 5 ml collagenase (Life Science, grade II, cat. no. 100502) 300 units/ml (one pancreas/vial) which was kept on ice until all pancreata were removed. Then the pancreata were shaken in the Grant/Edmund S25 thermoshaker at 200 strokes/min. at 37° C. for 5 min. The tissue was transferred to a fresh vial containing 5 ml 150 units/ml collagenase (supernatant was discarded) and shaken again in the thermoshaker for 5 min. The tissue was further shaken 3-5 min. on the thermoshaker, and thereafter all shaking is done by hand for 5-10 sec. each time. These steps were repeated until all tissue was digested. The process was followed continuously under the stereomicroscope and once digested the tissue was pooled and collected in progressively fewer tubes. All supernatants were washed 3 times in HBSS+0.5% NCS (HBSS (10×) from Gibco, cat. no. 14060, is diluted 10× in H2O before use, Newborn Calf Serum (NCS) from Gibco, cat. no. 26010-066), allowed to sediment for 5 min. between each wash, and left on ice, following which the islets were ready for picking. Islets were purified by transferring a little bit of supernatant to a Petri dish, filling up with HBSS+NCS and subsequently transferring (by mouth pipetting) with a constriction pipette to a new Petri dish. From there the islet were re-picked until pure, and then incubated in RPMI 1640 medium (Gibco, cat no 61870-010)+10% NCS at 37° C.
After incubation, the islets were washed in Krebs Ringer solution (115 mM NaCl, 4.7 mM KCl, 2.6 mM CaCl2, 1.2 mM KH2PO4, 1.2 mM MgSO4, 10 mM HEPES, 0.2% BSA, 2 mM glutamine, 5 mM NaHCO3, pH 7.4) and subsequently used in an islet perifusion experiment (Suprafusion 2500 from Brandel). For each of the three preincubation conditions four perifusion columns each with 60 islets were used. The islets were placed in Bio-gel P2 (Bio-Rad. cat. no. 150-4114) in the columns with a nylon mesh below and above the gel. The islets were initially perifused for 40 minutes with Krebs Ringer solution containing 3 mM glucose to obtain a stable baseline of insulin release. After 40 minutes the buffer was exchanged to 15 mM glucose for 30 minutes (time 40-70 min). Then the buffer was exchanged to 15 mM glucose containing 10 μM forskolin (Tocris 1099, batch 3A/86008) for 40 minutes (time 70-110 min). Finally the buffer was exchanged to low glucose (3 mM) for 30 minutes (time 110-140 min). The buffer was set to flow through the perifusion system at a rate of 0.3 ml/minute. Samples were taken every 5 minutes from time 30 to 140 min. Samples were stored at −20° C. and subsequently analysed for insulin, essentially as described by Poulsen et al. in Journal of Biomolecular Screening 12(X); p. 1-8, 2007 (LOCI (Luminescent Oxygen Channeling Immunoassay) sandwich immunoassay).
The results (ng/ml insulin) are shown in Table 1 below as mean+/−standard error of mean (SEM). The figures for the control and the FGF21 compound are based on three repetitions (due to problems with one of the four columns in these two experiments), while the figures for the GLP-1 compound are based on four repetitions.
The corresponding Area Under the Curve (designated AUC) figures were also calculated, and for the statistics the Student's T-test was used.

[2] = system: 3T3-L1 adipocytes; experiment: FGF21 activity assay, glucose uptake in 3T3-L1 adipocytes; type: cell-based, mouse
Method: The following assay may be used for determining the biological activity, or potency, of FGF21 compounds.
Mouse 3T3-L1 fibroblasts (e.g. available from ATCC, catalogue no. CL-173) are maintained in basal medium (DMEM (4500 mg/I Glucose) with 10% Fetal Bovine Serum (FBS) and Penicillin/Streptomycin). The cells are not allowed to reach confluence and should be passed (transferred to new vials) before reaching approx. 60% of confluency (by visual inspection).
For the glucose uptake assay, cells are plated 80,000 cells/well in a 24 well plate, or 20,000 cells/well in a 96 well plate, and when they reach confluency (high density, with a view to have differentiated adipose cells made), the medium is changed from basal medium to basal medium containing Troglitazone, IBMX, Dexamethasone (commercially available from, e.g., Sigma) and human insulin (commercially available from, e.g., Novo Nordisk A/S).
The cells are used 7-14, preferably 7-10, days after initiation of differentiation. […] The cells are lysed with Triton X-100 and lysates transferred to a 96 wells plate, microscint-40 (commercially available from, e.g., Perkin Elmer) is added and amount of tracer counted in a TOP-counter (e.g. a Packard top-counter from Perkin Elmer).
The EC50 of the FGF21 compound in question is calculated, and may be indicated relative to that of, e.g., compound F1.

[3] = target: human GLP-1 receptor (human, UniProt P43220 24-463); experiment: cell-based or functional assay
[4] = insulin AUC per perifusion column

human GLP-1 receptor, sequence (P43220 24-463): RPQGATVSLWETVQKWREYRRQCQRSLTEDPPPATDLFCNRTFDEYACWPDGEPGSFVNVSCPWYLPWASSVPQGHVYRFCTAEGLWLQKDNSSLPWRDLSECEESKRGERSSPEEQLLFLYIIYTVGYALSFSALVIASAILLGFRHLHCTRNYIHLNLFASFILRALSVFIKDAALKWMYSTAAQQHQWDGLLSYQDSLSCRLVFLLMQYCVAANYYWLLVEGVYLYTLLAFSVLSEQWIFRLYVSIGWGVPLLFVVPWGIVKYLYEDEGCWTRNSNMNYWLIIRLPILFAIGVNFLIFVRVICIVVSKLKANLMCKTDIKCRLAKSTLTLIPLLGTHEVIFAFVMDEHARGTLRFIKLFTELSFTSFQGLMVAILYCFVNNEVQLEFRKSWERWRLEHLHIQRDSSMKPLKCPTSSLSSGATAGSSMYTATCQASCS

**Q.** For “N-epsilon26-[2-(2-{2-[2-(2-{2-[(S)-4-Carboxy-4-(17-carboxyheptadecanoylamino)butyrylamino]ethoxy}-ethoxy)acetylamino]ethoxy}ethoxy)acetyl][Aib8,Arg34]GLP-1-(7-37) [compound G3]”, which “AUC for time 35-75 minutes (glucose response), single repetitions” value [1, 4] is on record?
**A.** 450.5 and 528.5 and 492.9 and 367.8

**Q.** What about the “AUC for time 75-140 minutes (forskolin response), single repetitions” value [1, 4] of the same molecule?
**A.** 3339 and 4005 and 3037 and 2674

**Q.** What about the “AUC for time 75-140 minutes (forskolin response), mean” value ([1]; insulin AUC, * FGF21 vs GLP-1) of the same molecule?
**A.** (mean 3239)

**Q.** What about the “AUC for time 35-75 minutes (glucose response), mean” value ([1]; insulin AUC, ** vs control) of the same molecule?
**A.** (mean 459.9**)

**Q.** “S-71-({2-[2-(2-{2-[2-(2-{2-[(S)-4-carboxy-4-(19-carboxynonadecanoyl-amino)butyrylamino]ethoxy}ethoxy)acetylamino]ethoxy}ethoxy)acetylamino]ethylcarbamoyl}methyl)-[Cys71]Met-FGF21 [compound F2]” was tested. Which “EC50 relative to that of compound F1” value [2] did it give?
**A.** 11%

B1: N-alpha1-[2-(2-{2-[2-(2-{2-[(S)-4-carboxy-4-(17-carboxyheptadecanoylamino)butyrylamino]ethoxy}ethoxy)acetylamino]ethoxy}ethoxy)acetyl][Arg56, Arg59, Arg69, Arg122]-Met-FGF21 (protein, listed as Homo sapiens)
chain: HPIPDSSPLLQFGGQVRQRYLYTDDAQQTEAHLEIREDGTVGGAADQSPESLLQLRALRPGVIQILGVRTSRFLCQRPDGALYGSLHFDPEACSFRELLLEDGYNVYQSEAHGLPLHLPGNRSPHRDPAPRGPARFLPLPGLPPALPEPPGILAPQPPDVGSSDPLSMVGPSQGRSPSYAS
modifications: N-terminal Met; N-alpha fatty diacid-gGlu-OEG-OEG acylation; mat_peptide (1)..(181); DISULFID (75)..(93)
**Q.** Which “EC50 relative to that of compound F1” value [2] does the source give for B1 here?
**A.** 30%

B2: N-epsilon37-[2-(2-{2-[2-(2-{2-[(S)-4-Carboxy-4-({trans-4-[(19-carboxynonadecanoylamino)methyl]cyclohexanecarbonyl}amino)butyrylamino]ethoxy}ethoxy)acetylamino]e … (peptide)
peptide: HAEGTFTSDVSSYLEEQAAREFIAWLVRGRK
modifications: DesaminoHis at position 7 (GLP-1 numbering; position 1 of SEQ ID NO:3); Lys37 acylated at N-epsilon with 19-carboxynonadecanoyl-Trx-gamma-Glu-OEG-OEG albumin binder
**Q.** For B2, which “EC50 of cAMP formation (AlphaScreen cAMP assay), relative to that of compound G1” value [3] is on record?
**A.** ~5 times the EC50 of compound G1
